Activity calls are given as the source filed them. The calls are words filed in the database; no cut-off is given here. Positions of bridges follow the written chain, without caps; N, C: chain ends. Non-standard residues stand in square brackets, D forms with d. Residues, ends and D or L forms follow the SMILES beside them. *: point of attachment. Benzoyl(2-OMe,5-SO2F) = COc1ccc(S(=O)(=O)F)cc1C(=O)*; Ser(allyl) = C=CCOC[C@H](N)C(=O)O; S5 = C=CCCC[C@](C)(N)C(=O)O; Dap = NC[C@H](N)C(=O)O
Key:
[1] = molecular target: T1, Induced myeloid leukemia cell differentiation protein Mcl-1 (Homo sapiens, UniProt Q07820); assay: Displacement of biotinylated BH3 peptide from N-terminal His6-tagged human Mcl-1 ligand binding domain (172 to 323 residues) expressed in Escherichia coli BL21(DE3) gold pLysS cells preincubated with protein for 2 hrs followed by incubation with BH3 peptide for 2 hrs by DELFIA assay
T1 sequence (Q07820 whole entry, the tested form may be a part): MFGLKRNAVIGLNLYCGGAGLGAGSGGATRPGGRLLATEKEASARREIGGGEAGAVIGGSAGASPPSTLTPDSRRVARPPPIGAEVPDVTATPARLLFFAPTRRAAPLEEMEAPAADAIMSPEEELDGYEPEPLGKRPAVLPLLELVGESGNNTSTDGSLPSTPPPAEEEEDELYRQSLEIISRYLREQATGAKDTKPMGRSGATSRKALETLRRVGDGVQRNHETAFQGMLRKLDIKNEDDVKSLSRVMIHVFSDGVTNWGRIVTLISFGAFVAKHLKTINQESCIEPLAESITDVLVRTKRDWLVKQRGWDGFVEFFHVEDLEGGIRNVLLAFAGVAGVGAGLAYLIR

[2] = molecular target: T1, Induced myeloid leukemia cell differentiation protein Mcl-1; assay: (§1) Covalent binding affinity to N-terminal His6-tagged human Mcl-1 ligand binding domain (172 to 323 residues) expressed in Escherichia coli BL21(DE3) gold pLysS cells assessed as stable covalent adduct formation by measuring band shift at 100 uM incubated for 16 hrs by SDS PAGE analysis
Homo sapiens [3] = organism: Homo sapiens; assay: as §1, with “residues) Lys234Ala mutant” for “residues)”
Homo sapiens [4] = organism: Homo sapiens; assay: as §1, with “residues) His252Ala mutant” for “residues)”
[5] = molecular target: T2, Bcl-2-related protein A1 (Homo sapiens) (UniProt Q16548); assay: Covalent binding affinity to N-terminal His6-tagged human Bfl-1 (1 to 149 residues) assessed as band shift at 100 uM incubated for 16 hrs by SDS PAGE analysis
T2 sequence (whole entry): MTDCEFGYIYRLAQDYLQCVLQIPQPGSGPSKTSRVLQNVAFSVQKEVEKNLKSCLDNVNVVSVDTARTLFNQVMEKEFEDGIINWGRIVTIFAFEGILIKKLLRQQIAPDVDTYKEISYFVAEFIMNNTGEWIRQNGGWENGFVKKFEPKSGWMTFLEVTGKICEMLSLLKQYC

Structure (SMILES): CC[C@H](C)[C@H](NC(=O)[C@H](CCCNC(=N)N)NC(=O)[C@]1(C)CCC/C=C\CCC[C@](C)(NC(=O)[C@@H](NC(=O)[C@@H](CNC(=O)c2cc(S(=O)(=O)F)ccc2OC)NC(C)=O)[C@@H](C)CC)C(=O)N[C@H](CCC(=O)O)C(=O)N[C@@H](CCC(N)=O)C(=O)N[C@@H](CC(C)C)C(=O)N1)C(=O)NCC(=O)N[C@@H](CC(=O)O)C(=O)N[C@@H](CCCNC(=N)N)C(=O)N[C@@H](Cc1ccccc1)C(N)=O
- IC50 [1]: 174 nM
- Activity [2]: Active
- Activity (Homo sapiens [3]): Active
- Activity (Homo sapiens [4]): Active
- Activity [5]: inactive

Structure (SMILES): CC[C@H](C)[C@H](NC(=O)[C@@H]1CCCCn2cc(nn2)CCC[C@H](NC(=O)[C@H](C)NC(=O)[C@@H](NC(=O)[C@H](CNC(=O)c2cc(S(=O)(=O)F)ccc2OC)NC(C)=O)[C@@H](C)CC)C(=O)N[C@@H](CCC(N)=O)C(=O)N[C@@H](CC(C)C)C(=O)N[C@@H](CCCNC(=N)N)C(=O)N1)C(=O)NCC(=O)N[C@@H](CC(=O)O)C(=O)N[C@@H](CCCNC(=N)N)C(=O)N[C@@H](Cc1ccccc1)C(N)=O
- IC50 [1]: 21 nM
- Activity [2]: Active
- Activity (Homo sapiens [3]): Active
- Activity (Homo sapiens [4]): Active
- Activity [5]: inactive

Structure (SMILES): CC[C@H](C)[C@H](NC(=O)[C@H](CCCNC(=N)N)NC(=O)[C@H](CCCNC(=N)N)NC(=O)[C@H](CC(C)C)NC(=O)[C@H](CCC(N)=O)NC(=O)[C@H](CCC(=O)O)NC(=O)[C@H](C)NC(=O)[C@@H](NC(=O)[C@H](CNC(=O)c1cc(S(=O)(=O)F)ccc1OC)NC(C)=O)[C@@H](C)CC)C(=O)NCC(=O)N[C@@H](CC(=O)O)C(=O)N[C@@H](CCCNC(=N)N)C(=O)N[C@@H](Cc1ccccc1)C(N)=O (Ac-[Dap](Benzoyl(2-OMe,5-SO2F))IAEQLRRIGDRF-NH2)
- IC50 [1]: 18 nM

Structure (SMILES): CC[C@H](C)[C@H](NC(=O)[C@H](CNC(=O)c1cc(S(=O)(=O)F)ccc1OC)NC(C)=O)C(=O)N[C@@H](C)C(=O)N[C@@]1(C)CCC/C=C\CCC[C@@](C)(C(=O)N[C@H](C(=O)NCC(=O)N[C@@H](CC(=O)O)C(=O)N[C@@H](C)C(=O)N[C@@H](Cc2ccccc2)C(N)=O)[C@@H](C)CC)NC(=O)[C@H](CCCNC(=N)N)NC(=O)[C@H](CC(C)C)NC(=O)[C@H](CCC(N)=O)NC1=O (Ac-[Dap](Benzoyl(2-OMe,5-SO2F))IA[S5]QLR[S5]IGDAF-NH2; staple (Z) 4-8)
- IC50 [1]: 12 nM
- Activity [2]: Active
- Activity (Homo sapiens [3]): Active
- Activity (Homo sapiens [4]): Active
- Activity [5]: inactive

Structure (SMILES): CC[C@H](C)[C@H](NC(=O)[C@H](CNC(=O)c1cc(S(=O)(=O)F)ccc1OC)NC(C)=O)C(=O)N[C@@H](C)C(=O)N[C@@]1(C)CCC/C=C\CCC[C@@](C)(C(=O)N[C@H](C(=O)NCC(=O)N[C@@H](CC(=O)O)C(=O)N[C@@H](CCCNC(=N)N)C(=O)N[C@@H](Cc2ccccc2)C(N)=O)[C@@H](C)CC)NC(=O)[C@H](CCCNC(=N)N)NC(=O)[C@H](CC(C)C)NC(=O)[C@H](CCC(N)=O)NC1=O (Ac-[Dap](Benzoyl(2-OMe,5-SO2F))IA[S5]QLR[S5]IGDRF-NH2; staple (Z) 4-8)
- IC50 [1]: 14 nM
- Activity [2]: Active
- Activity (Homo sapiens [3]): Active
- Activity (Homo sapiens [4]): Active
- Activity [5]: inactive

Structure (SMILES): CC[C@H](C)[C@H](NC(=O)[C@H](CNC(=O)c1cc(S(=O)(=O)F)ccc1OC)NC(C)=O)C(=O)N[C@@H](C)C(=O)N[C@H]1COC/C=C\CCC[C@@](C)(C(=O)N[C@H](C(=O)NCC(=O)N[C@@H](CC(=O)O)C(=O)N[C@@H](CCCNC(=N)N)C(=O)N[C@@H](Cc2ccccc2)C(N)=O)[C@@H](C)CC)NC(=O)[C@H](CCCNC(=N)N)NC(=O)[C@H](CC(C)C)NC(=O)[C@H](CCC(N)=O)NC1=O (Ac-[Dap](Benzoyl(2-OMe,5-SO2F))IA[Ser(allyl)]QLR[S5]IGDRF-NH2; staple (Z) 4-8)
- IC50 [1]: 6.6 nM
- Activity [2]: Active
- Activity (Homo sapiens [3]): Active
- Activity (Homo sapiens [4]): Active
- Activity [5]: inactive
